Here are results for five compounds from patent US4454126A, “Phosphoramide derivatives and medicines containing the same” (priority 1981, dated 1984).

The structures appear in SMILES notation.

One data set concerns the target T1, Jack bean urease (Canavalia ensiformis, UniProt P07374).
T1 construct: Urease extracted from Jack beans and then purified; from tissue; host or cells: Jack beans
Kind of data set: Urease inhibition effects - Jack bean urease. Type of data set: biochemical, Jack beans. Particulars: read-out: 50% Urease inhibition conc. I50. Here is the method:
(§1) Urease extracted from Jack beans and then purified and urease produced by Proteus mirabilis were used. The molar concentration of the test compound that inhibited 50% of the urease present was determined by the method of Kobashi et al, Biochim. Biophys. Acta, 227, 429-441 (1971), and the method of Okuda et al, Saishin Igaku (The Latest Medical Science) 21(3), 622-627 (1966).

For data set [1], the target named is T2, urease produced by Proteus mirabilis (Proteus mirabilis, UniProt P17086).
T2 construct: intact Proteus mirabilis cells and cell-free preparation
Kind of data set: Urease inhibition effects - Proteus mirabilis urease, intact cell. The format is cell-based. As to conditions: read-out: 50% Urease inhibition conc. I50. The procedure: as §1

Data set [2] addresses T2, urease produced by Proteus mirabilis. Kind of data set: Urease inhibition effects - Proteus mirabilis urease, cell free. Type of data set: biochemical. Particulars: read-out: 50% Urease inhibition conc. I50. The procedure: as §1
Data set [3] can be described thus: Rate of migration into urine. As to conditions: rat, in vivo, po; 50 mg/kg perorally, S.D. rats, urine excreted for 24 hrs; read-out: Rate of migration into urine, Average ± S.E. The procedure: 50 mg/kg of a test compound was administered perorally to S.D. rats weighing around 200 g. The urease-inhibition capacity of urine excreted for 24 hrs. thereafter was measured. The rate of migration into urine of each test compound was determined by the method of Kobashi et al, Yakugaku Zasshi 93(12), 1564-1572 (1973) and J. Biochim. 83, 287-293 (1973).

Another data set deals with Proteus mirabilis. Kind of data set: Inhibition of the formation of vesical calculi in rats infected with Proteus mirabilis. Particulars: peroral, five days from four days after inoculation, none: 34.5 ± 2.6 mg. Type of data set: in vivo, Female S.D. rats. From the text:
Female S.D. rats weighing about 200 g were inoculated with Proteus mirabilis in their bladders to cause infection. Four days after the inoculation peroral administration of a test compound was begun and the administration was continued for five days. The calculi formed in the bladder in each rat were weighed.

Another data set is described as follows: Acute toxicity. The format is in vivo, S.D. rats. As to conditions: peroral; for LD50: rat, in vivo, po, in 0.5% carboxymethylcellulose. The text has this:
Acute toxicities of test compounds were examined by the peroral administration of the test compounds, suspended in 0.5% carboxymethylcellulose, to male and female S.D. rats (8 weeks old).

T2 sequence (P17086 whole entry): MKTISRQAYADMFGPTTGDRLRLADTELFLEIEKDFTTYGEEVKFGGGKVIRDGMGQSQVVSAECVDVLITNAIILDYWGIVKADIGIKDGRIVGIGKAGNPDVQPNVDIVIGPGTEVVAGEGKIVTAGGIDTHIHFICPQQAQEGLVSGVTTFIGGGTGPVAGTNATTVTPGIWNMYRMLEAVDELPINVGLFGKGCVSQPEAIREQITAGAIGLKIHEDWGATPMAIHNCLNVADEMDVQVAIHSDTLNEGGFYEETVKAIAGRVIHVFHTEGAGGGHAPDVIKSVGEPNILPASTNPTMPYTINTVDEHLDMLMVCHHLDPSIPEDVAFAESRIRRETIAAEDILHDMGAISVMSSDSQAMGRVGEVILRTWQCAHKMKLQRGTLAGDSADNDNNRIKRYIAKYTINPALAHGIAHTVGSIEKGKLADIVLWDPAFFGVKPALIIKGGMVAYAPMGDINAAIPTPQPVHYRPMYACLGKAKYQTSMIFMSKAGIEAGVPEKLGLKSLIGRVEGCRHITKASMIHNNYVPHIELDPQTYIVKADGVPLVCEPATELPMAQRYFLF
T2 sequence (P17088 whole entry, further chain): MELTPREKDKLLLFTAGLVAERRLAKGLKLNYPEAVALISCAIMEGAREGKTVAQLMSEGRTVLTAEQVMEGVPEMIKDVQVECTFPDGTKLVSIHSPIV
T2 sequence (P17087 whole entry, further chain): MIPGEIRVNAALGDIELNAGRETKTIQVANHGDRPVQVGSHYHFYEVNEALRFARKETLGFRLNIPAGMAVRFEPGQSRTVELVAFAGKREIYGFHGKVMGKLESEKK
T1 sequence (P07374 whole entry, looked up): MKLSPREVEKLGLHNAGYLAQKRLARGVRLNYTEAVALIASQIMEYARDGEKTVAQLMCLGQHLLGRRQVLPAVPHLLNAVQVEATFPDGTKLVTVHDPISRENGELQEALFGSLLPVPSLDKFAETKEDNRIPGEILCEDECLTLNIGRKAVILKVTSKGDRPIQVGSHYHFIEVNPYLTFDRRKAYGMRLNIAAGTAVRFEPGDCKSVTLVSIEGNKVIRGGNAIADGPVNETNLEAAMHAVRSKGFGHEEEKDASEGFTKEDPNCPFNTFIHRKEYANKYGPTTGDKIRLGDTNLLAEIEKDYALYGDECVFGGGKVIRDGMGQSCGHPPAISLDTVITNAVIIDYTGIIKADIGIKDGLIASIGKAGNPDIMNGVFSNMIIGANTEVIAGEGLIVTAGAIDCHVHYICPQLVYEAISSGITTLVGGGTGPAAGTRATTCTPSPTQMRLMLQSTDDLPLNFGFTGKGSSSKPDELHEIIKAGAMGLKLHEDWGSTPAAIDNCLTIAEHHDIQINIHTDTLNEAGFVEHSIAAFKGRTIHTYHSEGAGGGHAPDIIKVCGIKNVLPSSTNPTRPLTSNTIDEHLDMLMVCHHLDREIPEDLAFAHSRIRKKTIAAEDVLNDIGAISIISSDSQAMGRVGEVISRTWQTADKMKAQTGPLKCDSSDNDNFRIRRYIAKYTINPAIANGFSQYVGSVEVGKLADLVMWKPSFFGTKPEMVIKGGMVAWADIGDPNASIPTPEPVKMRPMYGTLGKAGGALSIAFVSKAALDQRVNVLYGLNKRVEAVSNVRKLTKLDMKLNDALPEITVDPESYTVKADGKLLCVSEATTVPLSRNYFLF

In the case of `CC(=CC(=O)NP(N)(N)=O)CCCC(C)C` [Compound B, N-(diaminophosphinyl)-3,7-dimethyl-2-octenamide], the IC50 on Jack bean urease was found to be 5200 nM; in data set [1] it was 15 nM; in data set [2], 16 nM.
For the compound `CC(C)CCCC(C)CC(=O)NP(N)(N)=O` (stereo not shown) [Compound D, N-(diaminophosphinyl)-3,7-dimethyloctanamide], the values for the IC50 (on Jack bean urease; in data set [1]) were 870 nM and 14 nM, respectively.
As for `NP(N)(=O)NC(=O)c1ccccc1` [Control Compound, N-(diaminophosphinyl)benzamide, reference compound], the IC50 on Jack bean urease worked out at 600 nM; in data set [1], 18 nM; in data set [2] it was 13 nM. In addition, the dose excreted at 24 h in data set [3] was determined as 21 ± 2.7%. The “Weight of calculi (Average ± S.E.)” value in the data set with Proteus mirabilis (12.5 mg/kg per day) was 22.5 ± 4.0 mg.
In the case of `CC(C)CC(=O)NP(N)(N)=O` [Compound C, N-(diaminophosphinyl)-3-methylbutanamide], the IC50 was determined as 1600 nM on Jack bean urease, 68 nM in data set [1] and 61 nM in data set [2].
As to `CC(C)=CC(=O)NP(N)(N)=O` [Compound A, N-(diaminophosphinyl)-3-methyl-2-butenamide], the IC50 at Jack bean urease worked out at 630 nM; in data set [1] it was 18 nM; in data set [2], 16 nM. The dose excreted at 24 h in data set [3] was 29.6 ± 2.1%. For the same compound, the “Weight of calculi (Average ± S.E.)” value is 10.7 ± 3.9 mg in the data set with Proteus mirabilis (12.5 mg/kg per day) and 10.9 ± 2.8 mg in the data set on Proteus mirabilis (50 mg/kg per day). The “Acute toxicity, in words” value in the data set “Acute toxicity” (S.D. rats) is “only a very low toxitity”. The results for the median lethal dose (LD50) in the data set “Acute toxicity” (female S.D. rats (8 weeks old)) and in “Acute toxicity” (male S.D. rats (8 weeks old)) were greater than 4240 mg/kg and greater than 6000 mg/kg, respectively.

What is called LD50 is the dose expected to kill half of the subjects tested. Low readings indicate a more toxic substance, high ones a less toxic substance.
